These results are taken from patent US12110289B2, “Heterocyclic compounds, preparation methods and uses thereof” (InventisBio Co., Ltd., priority 2020, dated 2024).

The first assay deals with Lung cancer cell line NCI-H358 containing KRas G12C mutation. The assay can be described thus: Assay for cell proliferation (Cell-titer Glo, 5 days). To be noted: Homo sapiens, NCI-H358, 120 h, NCI-H358, 5 days, Cell-titer Glo; read-out: IC50 (nM), Inhibition of NCI-H358 Cell Proliferation. The assay is classed as cell-based, human. The protocol:
One hundred fifty microliter (150 μL) of media containing 2000 cells per well were seeded into each well of a 96-well culture plate and left to attach overnight in a 37° C. incubator with 5% CO2. Diluted compounds of 0.75 μL for each well were added by liquid handler at a final concentration of 0.5% DMSO. Cells were treated for 5 days in the incubator. Cell-titer Glo (CTG) kit (Promega) was used to assess cell proliferation. Of note, 120 μL of CTG reagent was added to each well and incubated at RT for 10 minutes.
With `C=CC(=O)N1C[C@H](C)N(c2nc(=O)n(-c3c(C(C)C)ncnc3C(C)C)c3nc(-c4c(N)cccc4F)c(Cl)cc23)C[C@H]1C` [4-((2S,5R)-4-acryloyl-2,5-dimethylpiperazin-1-yl)-7-(2-amino-6-fluorophenyl)-6-chloro-1-(4,6-diisopropylpyrimidin-5-yl)pyrido[2,3-d]pyrimidin-2(1H)-one], the IC50 is 1.6 nM. On the same count and under the same terms, in the case of `C=CC(=O)N1C[C@H](C)N(c2nc(=O)n(-c3c(C(C)C)ncnc3C(C)C)c3nc(-c4ccccc4F)c(F)cc23)C[C@H]1C` [4-((2S,5R)-4-acryloyl-2,5-dimethylpiperazin-1-yl)-7-(2-fluorophenyl)-1-(4,6-diisopropylpyrimidin-5-yl)-6-fluoropyrido[2,3-d]pyrimidin-2(1H)-one] it was 19 nM. On the same count and under the same terms, in the case of `C=CC(=O)N1C[C@H](C)N(c2nc(=O)n(-c3c(C(C)C)ncnc3C(C)C)c3nc(-c4ccccc4F)c(Cl)cc23)C[C@H]1C` [4-((2S,5R)-4-acryloyl-2,5-dimethylpiperazin-1-yl)-7-(2-fluorophenyl)-6-chloro-1-(4,6-diisopropylpyrimidin-5-yl)pyrido[2,3-d]pyrimidin-2(1H)-one] it was 4 nM; in that of `C=CC(=O)N1CCN(c2nc(=O)n(-c3c(C(C)C)ncnc3C(C)C)c3nc(-c4ccccc4F)c(Cl)cc23)C[C@@H]1CC#N` [Compound 2], 23.9 nM. Turning to `C=CC(=O)N1CCN(c2nc(=O)n(-c3c(C4CC4)ncnc3C3CC3)c3nc(-c4cccc5[nH]nc(N)c45)c(Cl)cc23)[C@@H](C)C1` [Compound 3], the IC50 worked out at 661 nM.

For `C=CC(=O)N1CCN(c2nc(=O)n(-c3c(C4CC4)ncnc3C3CC3)c3nc(-c4ncccc4F)c(Cl)cc23)[C@@H](C)C1` [Compound 4], the IC50 is 130 nM. Still for that read-out and setting: in the case of `C=CC(=O)N1CCN(c2nc(=O)n(-c3c(C4CC4)ncnc3C3CC3)c3nc(-c4ccccc4F)c(Cl)cc23)C[C@@H]1CC#N` [Compound 5] it was 172 nM.

In the case of `C=CC(=O)N1CCN(c2nc(=O)n(-c3c(C(C)C)nc(N4CCC4)nc3C(C)C)c3nc(-c4ccccc4F)c(Cl)cc23)[C@@H](C)C1` [Compound 7], the IC50 is 30.6 nM. Consider `C=CC(=O)N1CCN(c2nc(=O)n(-c3c(C(C)C)nc(NC)nc3C(C)C)c3nc(-c4ccccc4F)c(Cl)cc23)[C@@H](C)C1` [Compound 11], for which the IC50 was 9.2 nM.

On to `C=CC(=O)N1CCN(c2nc(=O)n(-c3c(C(C)C)nc(N(C)C)nc3C(C)C)c3nc(-c4ccccc4F)c(Cl)cc23)[C@@H](C)C1` [Compound 12], for which the IC50 turned out to be 107 nM. On to `C=CC(=O)N1CCN(c2nc(=O)n(-c3c(C(C)C)nc(OCC(C)(C)O)nc3C(C)C)c3nc(-c4ccccc4F)c(Cl)cc23)[C@@H](C)C1` [Compound 16], for which the IC50 was found to be 8 nM. `C=CC(=O)N1CCN(c2nc(=O)n(-c3c(C(C)C)nc(OC4CCN(C)C4)nc3C(C)C)c3nc(-c4ccccc4F)c(Cl)cc23)[C@@H](C)C1` (stereo partly drawn) [Compound 17]: the IC50 is 14.4 nM. Turning to `C=CC(=O)N1CCN(c2nc(=O)n(-c3c(C(C)C)nc(OC4CN(C)C4)nc3C(C)C)c3nc(-c4ccccc4F)c(Cl)cc23)[C@@H](C)C1` [Compound 18], the IC50 is 16 nM. Regarding `C=CC(=O)N1CCN(c2nc(=O)n(-c3c(C(C)C)nc(OCC(C)O)nc3C(C)C)c3nc(-c4ccccc4F)c(Cl)cc23)[C@@H](C)C1` (stereo partly drawn) [Compound 19], the IC50 was found to be 5 nM. Same read-out and setting: the figure for `C=CC(=O)N1CCN(c2nc(=O)n(-c3c(C4CC4)nc(C#N)nc3C3CC3)c3nc(-c4c(O)cccc4F)c(F)cc23)[C@@H](C)C1` [Compound 25] is 52.5 nM; for `C=CC(=O)N1CCN(c2nc(=O)n(-c3c(C4CC4)nc(C#N)nc3C3CC3)c3nc(-c4ccccc4F)c(F)cc23)[C@@H](C)C1` [Compound 26] it is 168 nM; for `C=CC(=O)N1CCN(c2nc(=O)n(-c3c(C4CC4)nc(C)nc3C3CC3)c3nc(-c4ccccc4F)c(F)cc23)[C@@H](C)C1` [Compound 27] it is 69.9 nM. As to `C=CC(=O)N1CCN(c2nc(=O)n(-c3c(C4CC4)nc(N)nc3C3CC3)c3nc(-c4ccccc4F)c(F)cc23)[C@@H](C)C1` [Compound 30], the IC50 came out at 52.7 nM.

For the compound `C=CC(=O)N1[C@H](C)CN(c2nc(=O)n(-c3c(C(C)C)nc(OCCN(C)C)nc3C(C)C)c3nc(-c4ccccc4F)c(Cl)cc23)C[C@@H]1C` [Compound 31], the IC50 was determined as 28.2 nM. Still for that read-out and setting: in the case of `C=CC(=O)N1CCN(c2nc(=O)n(-c3c(C(C)C)nc(OCCOC)nc3C(C)C)c3nc(-c4ccccc4F)c(Cl)cc23)[C@@H](C)C1` [Compound 32] it was 8.5 nM; in that of `C=CC(=O)N1CCN(c2nc(=O)n(-c3c(C4CC4)nc(NCCN(C)C)nc3C3CC3)c3nc(-c4ccccc4F)c(F)cc23)[C@@H](C)C1` [Compound 33], 67.5 nM; in that of `C=CC(=O)N1CCN(c2nc(=O)n(-c3c(C4CC4)nc(N4CC(N(C)C)C4)nc3C3CC3)c3nc(-c4ccccc4F)c(F)cc23)[C@@H](C)C1` [Compound 34], 58.3 nM.

`C=CC(=O)N1CCN(c2nc(=O)n(-c3c(C4CC4)nc(NC(C)=O)nc3C3CC3)c3nc(-c4ccccc4F)c(F)cc23)[C@@H](C)C1` [Compound 35]: the IC50 turned out to be 58.2 nM. As to `C=CC(=O)N1CCN(c2nc(=O)n(-c3c(C4CC4)ncnc3C3CC3)c3nc(-c4cccc5[nH]nc(N)c45)c(F)cc23)[C@@H](C)C1` [Compound 36], the IC50 was more than 3000 nM. The same measure, in the same setting: in the case of `C=CC(=O)N1C[C@H](C)N(c2nc(=O)n(-c3c(C4CC4)ncnc3C3CC3)c3nc(-c4cccc5[nH]nc(N)c45)c(F)cc23)C[C@H]1C` [Compound 37] it was more than 3000 nM; in that of `C=CC(=O)N1[C@H](C)CN(c2nc(=O)n(-c3c(C4CC4)ncnc3C3CC3)c3nc(-c4cccc5[nH]nc(N)c45)c(F)cc23)C[C@@H]1C` [Compound 38], more than 3000 nM. In the case of `C=CC(=O)N1CCN(c2nc(=O)n(-c3c(C4CC4)ncnc3C3CC3)c3nc(-c4ccccc4F)c(F)cc23)[C@@H](C)C1` [Compound 39], the IC50 worked out at 38.2 nM. On the same count and under the same terms, in the case of `C=CC(=O)N1C[C@H](C)N(c2nc(=O)n(-c3c(C4CC4)ncnc3C3CC3)c3nc(-c4ccccc4F)c(F)cc23)C[C@H]1C` [Compound 42] it was 39.5 nM; in that of `C=CC(=O)N1C[C@H](C)N(c2nc(=O)n(-c3c(C4CC4)ncnc3C3CC3)c3nc(-c4c(O)cccc4F)c(F)cc23)C[C@H]1C` [Compound 43], 15.5 nM; in that of `C=CC(=O)N1[C@H](C)CN(c2nc(=O)n(-c3c(C4CC4)ncnc3C3CC3)c3nc(-c4ccccc4F)c(F)cc23)C[C@@H]1C` [Compound 45], 299 nM.

With `C=CC(=O)N1[C@H](C)CN(c2nc(=O)n(-c3c(C4CC4)ncnc3C3CC3)c3nc(-c4c(O)cccc4F)c(F)cc23)C[C@@H]1C` [Compound 46], the IC50 came to 81.5 nM. Consider `C=CC(=O)N1[C@H](C)CN(c2nc(=O)n(-c3c(C4CC4)ncnc3C3CC3)c3nc(-c4c(N)cccc4F)c(F)cc23)C[C@@H]1C` [Compound 47], for which the IC50 came to 23.8 nM.

For the compound `C=CC(=O)N1CCN(c2nc(=O)n(-c3c(C(C)C)nc(C)nc3C(C)C)c3nc(-c4ccccc4F)c(F)cc23)[C@@H](C)C1` [Compound 48], the IC50 was 25.8 nM. On the same count and under the same terms, in the case of `C=CC(=O)N1C[C@H](C)N(c2nc(=O)n(-c3c(C(C)C)nc(C)nc3C(C)C)c3nc(-c4ccccc4F)c(F)cc23)C[C@H]1C` [Compound 49] it was 25 nM.

Staying with this assay, now noted: NCI-H358, 5 days, Cell-titer Glo; read-out: IC50 (nM), Inhibition of NCI-H358 Cell Proliferation.
For `C=CC(=O)N1C[C@H](C)N(c2nc(=O)n(-c3c(C4CC4)ncnc3C3CC3)c3nc(-c4ccccc4F)c(F)cc23)C[C@H]1C` [Compound 42], the IC50 was 38.5 nM.

The same assay, now with this note: NCI-H358 IC50 comparison.
Take `C=CC(=O)N1C[C@H](C)N(c2nc(=O)n(-c3c(C(C)C)ncnc3C(C)C)c3nc(-c4c(N)cccc4F)c(Cl)cc23)C[C@H]1C` [4-((2S,5R)-4-acryloyl-2,5-dimethylpiperazin-1-yl)-7-(2-amino-6-fluorophenyl)-6-chloro-1-(4,6-diisopropylpyrimidin-5-yl)pyrido[2,3-d]pyrimidin-2(1H)-one]: the “fold more potent: 2-amino-6-fluoro-phenyl compound vs. corresponding 2-fluoro-phenyl compound at R8” value was “only slightly more potent”.
